Laboratory results as given in patent US20250041387A1, “POLYPEPTIDE SEQUENCE OF KDM6B AND APPLICATION OF KDM6B IN REGULATING AND CONTROLLING FUNCTION OF MESENCHYMAL STEM CELL” (BEIJING STOMATOLOGICAL HOSPITAL, CAPITAL MEDICAL UNIVERSITY, priority 2021, published 2025).

Legend:
[1] = test system: senescent bone marrow mesenchymal stem cells; assay: ALP activity of senescent BMSCs of aged mice; assay type: cell-based, C57BL/6 mice; conditions: 3 days of osteogenic induction, FIG. 5B
Experimental: (§1) • (1) Osteogenic culture medium was purchased from Invitrogen, USA. • (2) Quantification of alkaline phosphatase (ALP) activity • 1) After 3 days of osteogenic induction, the culture medium was discarded, and the cells were washed with PBS twice. • 2) The cells were added with 500 μL of lysis buffer, and incubated at 37° C. for 15 minutes. • 3) The cells were scraped, transferred into a 1.5 mL EP tube, and centrifuged at 14000 rpm at 4° C. for 10 minutes. The supernatant was transferred into a new EP tube to measure the protein concentration, and the procedure was the same as that in Western blot. • 4) The capsule from the alkaline phosphatase kit (Stock substrate Sol.) was dissolved with 5 mL of distilled water under vigorous shaking, and mixed well. • 5) 50 μL of ALP buffer was added to 50 μL of Stock substrate Sol to obtain a mixture. 100 μL of the mixture was added to each well in a 96-well plate, then added with 10 μL of sample, and mixed well. A blank well without sample added was set for zero adjustment. • 6) The plate was incubated at 37° C. for 15 minutes, and the OD value was measured at 405 nm.
(§2) Result of ALP activity was calculated according to Y/incubation time/protein concentration. • (3) Alizarin red staining • 1) After two weeks of osteogenic induction, the culture medium was discarded. The cells were washed three times with PBS pre-cooled at 4° C., and fixed with 70% ethanol at 4° C. for 1 hour. • 2) The cells were washed 2 times with double distilled water, and stained with 40 mM alizarin red solution (pH 4.2) at room temperature for 10 minutes. The staining was observed by naked eyes. • 3) The cells were washed 3 times with double-distilled water. • (4) Determination of Ca^2+ concentration

[2] = test system: stem cells from apical papilla; assay: β-gal staining and quantification in SCAPs; assay type: cell-based, human; conditions: SCAPs treated with polypeptide, FIG. 8C, D
Experimental: (§3) Prior to the start of the experiment, the GENMED staining solution (Reagent E) in the kit was taken out of the refrigerator at −20° C., and thawed in an ice bath. Then 9.5 mL of GENMED dilution (Reagent D) was added into a 15 ml conical centrifuge tube, added with 500 μL of GENMED staining solution (Reagent E), mixed well, and then preheated in a 37° C. thermostatic sink. The obtained mixture was labeled as GENMED staining working solution.

[3] = test system: senescent mouse bone marrow mesenchymal stem cells; assay: Senescence markers β-gal and P16 in senescent mouse BMSCs; assay type: cell-based
[4] = target: T1, KDM6B/WDR5 protein complex (Homo sapiens, UniProt P61964); assay: Co-IP of KDM6B/WDR5 complex in bone marrow mesenchymal stem cells; assay type: cell-based; set-up: endogenous in cells; host or cells: bone marrow mesenchymal stem cells; conditions: FIG. 3C
Experimental: (§4) Protein was extracted from cells of knockout group and overexpression group using IP lysate. The knockout group cells SCAPs-Scramsh and SCAPs-KDM6Bsh, SCAPs-Scramsh and SCAPs-WDR5sh, BMSCs-Scramsh and BMSCs-WDR5sh were added with KDM6B antibody, WDR5 antibody, and IgG antibody, respectively, and then rotated on a shaker at 4° C. overnight. On the next day, the cells were added with Protein A/G beads and rotated on a rotary shaker at 4° C. for 2 hours. A complex of protein-antibody-agarose bead was formed, and the formation of a protein complex of KDM6B and WDR5WB was detected by WB. The overexpression group cells SCAPs-Vector, SCAPs-HA-KDM6B, SCAPs-HA-KDM6B-mut102, and SCAPs-HA-KDM6B-mut114 were added with ProteinA/G beads with HA antibody, and cells SCAPs Vector and SCAPs-Myc-WDR5 were added with ProteinA/G beads with Myc antibody. All cells were incubated overnight to form a complex of protein-antibody-agarose bead. The formation of a protein complex of KDM6B and WDR5 was detected by WB method. • (2) Grouping: Input group (loading amount of 25 μg); antibody group (loading amount of 800 μg, 2 μg of antibody); IgG group (loading amount of 800 μg, 2 μg of antibody). Samples were diluted with lysate. • (3) Preparation of protein A/G beads
The protein A/G beads were washed 4 times with PBS, and centrifuged at 2000 g for 2 minutes. The supernatant was carefully collected, and added with PBS to achieve a content of protein A/G beads of 50%. 30 μL of protein A/G beads was added to each tube, and rotated at 4 degrees overnight. • (4) The samples were centrifuged at 5000 rpm for 30 s at 4° C., and washed 4-5 times with PBS by inverted up and down. Then the samples were centrifuged, and the supernatant was discarded. The samples were added with 30 μL of 2× loading buffer, and placed at 100° C. for 5 minutes. • (5) The supernatant was subjected to electrophoresis.

[5] = test system: bone marrow mesenchymal stem cells; assay: β-gal staining and quantification in BMSCs; assay type: cell-based, human; conditions: FIG. 4B, C
Experimental: as §3

[6] = test system: stem cells from apical papilla; assay: ALP activity of SCAPs after odontogenic induction; assay type: cell-based, human; conditions: SCAPs treated with polypeptide, 3 days of odontogenic induction, FIG. 8E
Experimental: as §1, §2

[7] = test system: bone marrow mesenchymal stem cells; assay: ALP activity of BMSCs after osteogenic induction; assay type: cell-based, human; conditions: 3 days of induction in osteogenic culture medium, FIG. 4D
Experimental: as §1, §2

[8] = target: T1, KDM6B/WDR5 protein complex; assay: Co-IP of KDM6B/WDR5 complex in stem cells from apical papilla; assay type: cell-based; set-up: endogenous in cells; host or cells: stem cells from apical papilla (SCAPs); conditions: SCAPs treated with polypeptide, compared to control group; FIG. 8A
Experimental: as §4
The protein A/G beads were washed 4 times with PBS, and centrifuged at 2000 g for 2 minutes. […]

| Substance | ALP activity [1] | ALP activity ([1]; listed as 102-peptide) | number of β-gal positive cells (quantification) [2] | number of β-gal positive cells (quantification) ([2]; listed as 102 peptide) | expression of senescence markers of β-gal and P16 [3] | opening/blocking of the binding of KDM6B/WDR5 protein complex (Co-IP) [4] | number of β-gal positive cells (quantification) [5] | number of β-gal positive cells (quantification) ([5]; listed as 102 peptide) | ALP activity [6] | ALP activity ([6]; listed as 102peptide) | ALP activity [7] | ALP activity ([7]; listed as 102-peptide) | binding of KDM6B to WDR5 (Co-IP) [8] | ALP activity ([1]; listed as 114-peptide) | number of β-gal positive cells (quantification) ([2]; listed as 114 peptide) | number of β-gal positive cells (quantification) ([5]; listed as 114 peptide) | ALP activity ([6]; listed as 114 peptide) | ALP activity ([7]; listed as 114-peptide) |
| --- | --- | --- | --- | --- | --- | --- | --- | --- | --- | --- | --- | --- | --- | --- | --- | --- | --- | --- |
| FITC-(Acp)-KEKSRRVLGNLDLQSYGRKKRRQRRR [peptide 102] | promoted | 6.951 | significant reduction | 7.296 | reduce | could effectively open the binding | significant reduction | 19.33 | promoted | 0.3961 | promoted | 4.218 | reduced | – | – | – | – | – |
| FITC-(Acp)-ADLTISHCAADVVRAYGRKKRRQRRR [peptide 114] | promoted | – | significant reduction | – | reduce | could effectively open the binding | significant reduction | – | promoted | – | promoted | – | reduced | 7.612 | 3.978 | 16.76 | 0.7238 | 4.621 |
